For series [1], the system named is HIV. Description: HOS HIV anti-infectivity assay (strain not stated). Conditions: Human immunodeficiency virus 1, activity level class, read-out: Antiviral acitivity. It is filed as cell-based. How it is done:
(§1) Compounds were profiled against two HIV-1 viruses, the M-tropic (CCR5 utilizing) Ba-L strain and the T-tropic (CXCR4 utilizing) IIIB strain. Both viruses were propagated in human peripheral blood lymphocytes. Compounds were tested for there ability to block infection of the HOS cell line (expressing hCXCR4/hCCR5/hCD4/pHIV-LTR-luciferase) by either HIV-1 Ba-L or HIV-1 IIIB. Compound cytotoxicity was also examined in the absence of virus addition.
(§2) HOS cells (expressing hCXCR4/hCCR5/hCD4/pHIV-LTR-luciferase) were harvested and diluted in Dulbeccos modified Eagles media supplemented with 2% FCS and non-essential amino acid to a concentration of 60,000 cells/ml. The cells were plated into 96-well plates (100 ul per well) and the plates were placed in a tissue culture incubator (37° C.; 5% CO2/95% air) for a period of 24 h.
(§3) Subsequently, 50 ul of the desired drug solution (4 times the final concentration) was added to each well and the plates were returned to the tissue culture incubator (37° C.; 5% CO2/95% air) for 1 h. Following this incubation 50 ul of diluted virus was added to each well (approximately 2 million RLU per well of virus). The plates were returned to the tissue culture incubator (37° C.; 5% CO2/95% air) and were incubated for a further 96 h.
(§4) Following this incubation the endpoint for the virally infected cultures was quantified following addition of Steady-Glo Luciferase assay system reagent (Promega, Madison, Wis.). Cell viability or non-infected cultures was measured using a CellTiter-Glo luminescent cell viability assay system (Promega, Madison, Wis.). All luminescent readouts are performed on a Topcount luminescence detector (Packard, Meridien, Conn.).

Series [2] concerns the target T1, human CXCR4 (Homo sapiens, UniProt P61073).
T1 construct: expressed in transfected cells; host or cells: HEK-293 cells (stably expressing human macrophage scavenging receptor) transduced with human CXCR4 BacMam and Gqi5 BacMam
The series is described as follows: Functional FLIPR assay (block of SDF-1 alpha induced [Ca2+]i change). It is filed as cell-based. The settings on record: HEK-293 cells with human CXCR4 BacMam and Gqi5 BacMam; antagonism of SDF-1 alpha; read-out: Functional assay (pIC50) (converted). How it is done: Human embryonic kidney (HEK-293) cells were maintained and harvested as described above. Cells were plated in 96-well, black clear bottom, poly-lysine coated plates at a concentration of 40,000 cells per well in a final volume of 100 ul containing human CXCR4BacMam (MOI=25) and Gqi5 BacMam (MOI=12.5). The cells were incubated at 37° C., 5% CO2, 95% humidity for 24 h to allow for protein expression.
After the required incubation time the cells were washed once with 50 ul of fresh serum-free DMEM/F12 media containing probenicid. 50 ul of dye solution was then added to the cells (Calcium Plus Assay Kit Dye; Molecular Devices) was dissolved in 200 ml of the above probenicid/BSA containing media and incubated for 1 h. Cell plates were transferred to a Fluorometric Imaging Plate Reader (FLIPR). Upon addition the effect of the compounds on the change in [Ca^2+]i was examined to determine if the compounds were agonists or antagonists (ability to block SDF-1 alpha activity) at the CXCR4 receptor. IC50 values are determined and pKb values are calculated using the Leff and Dougall equation: KB═IC50/((2+([agonist]/EC50̂b) ̂1/b−1) Where IC50 is that defined by the antagonist concentration-response curve [agonist] is the EC80 concentration of agonist used EC50 is that defined by the agonist concentration-response curve b is the slope of the agonist concentration-response curve.

Series [3] is described as follows: Cell/cell fusion assay (luciferase). The settings on record: Homo sapiens, HEK293; 24 h incubation, luciferase readout; read-out: Fusion assay (pIC50) (converted). It is filed as cell-based. The source says: The complete coding sequences of HIV-1 tat (GenBank Accession No. X07861) and rev (GenBank Accession No. M34378) were cloned into pcDNA3.1 expression vectors containing G418 and hygromycin resistance genes, respectively. The complete coding sequence of the HIV-1 (HXB2 strain) gp160 envelope gene (nucleotide bases 6225-8795 of GenBank Accession No. K03455) was cloned into plasmid pCRII-TOPO. The three HIV genes were additionally inserted into the baculovirus shuttle vector, pFastBacMam1, under the transcriptional control of the CMV promoter. A construction of the pHIV—I LTR containing mutated NFkB sequences linked to the luciferase reporter gene was prepared by digesting pcDNA3.1, containing the G418 resistance gene, with Nru I and Bam HI to remove the CMV promoter. LTR-luc was then cloned into the Nru I/Bam HI sites of the plasmid vector. Plasmid preparations were performed after the plasmids were amplified in Escherichia coli strain DH5-alpha. The fidelity of the inserted sequences was confirmed by double-strand nucleotide sequencing using an ABI Prism Model 377 automated sequencer.
Recombinant BacMam baculoviruses were constructed from pFastBacMam shuttle plasmids by using the bacterial cell-based Bac-to-Bac system. Viruses were propagated in Sf9 (Spodoptera frugiperda) cells cultured in Hink's TNM-FH Insect media supplemented with 10% (v/v) fetal bovine serum and 0.1% (v/v) pluronic F-68 according to established protocols.
Human osteosarcoma (HOS) cells that naturally express human CXCR4 were transfected with human CCR5, human CD4 and the pHIV-LTR-luciferase plasmid using FuGENE 6 transfection reagent. Single cells were isolated and grown under selection condition in order to generate a stable HOS (hCXCR4/hCCR5/hCD4/pHIV-LTR-luciferase) clonal cell line. The cells were maintained in Dulbeccos modified Eagles media supplemented with 10% fetal calf serum (FCS), G418 (400 ug/ml), puromycin (1 ug/ml), mycophenolic acid (40 ug/ml), xanthine (250 ug/ml) and hypoxanthine (13.5 ug/ml) to maintain a selection pressure for cells expressing the LTR-luciferase, hCCR5 and hCD4, respectively. Human embryonic kidney (HEK-293) cells stably transfected to express the human macrophage scavenging receptor (Class A, type 1; GenBank Accession No. D90187), were maintained in DMEM/F-12 media (1:1) supplemented with 10% FCS and 1.5 ug/ml puromycin. The expression of this receptor by the HEK-293 cells enhances their ability to stick to tissue culture treated plasticware.
HEK-293 cells were harvested using enzyme-free cell dissociation buffer. The cells were resuspended in DMEM/F-12 media supplemented with 10% FCS and 1.5 ug/ml and counted. […]
Following the 24 h incubation, total cellular luciferase activity was measured using the LucLite Plus assay kit (Packard, Meridien, Conn.). […]

A short description of series [4]: Compound cytotoxicity in the absence of virus (CellTiter-Glo). The settings on record: human; HOS cells, no virus; read-out: Cytotox (pIC50) (converted). It counts as cell-based. The protocol:
as §1, §2, §3, §4
In general terms: In ATP-based viability assays light output follows the ATP content of the culture.

In series [5] the test system is HIV-1 IIIB (T-tropic, CXCR4 utilizing). The series is described as follows: HOS HIV-1 infectivity assay, IIIB strain. The settings on record: Human immunodeficiency virus 1; HOS cells infected with HIV-1 IIIB, 96 h, luciferase; read-out: HOS (3B). It is filed as cell-based. How it is done:
as §1, §2, §3, §4

Series [6] relates to T-tropic HIV. The settings on record: patients that are dual tropic or with only the T-tropic form of the virus; cited from earlier work.

T1 sequence (P61073 whole entry): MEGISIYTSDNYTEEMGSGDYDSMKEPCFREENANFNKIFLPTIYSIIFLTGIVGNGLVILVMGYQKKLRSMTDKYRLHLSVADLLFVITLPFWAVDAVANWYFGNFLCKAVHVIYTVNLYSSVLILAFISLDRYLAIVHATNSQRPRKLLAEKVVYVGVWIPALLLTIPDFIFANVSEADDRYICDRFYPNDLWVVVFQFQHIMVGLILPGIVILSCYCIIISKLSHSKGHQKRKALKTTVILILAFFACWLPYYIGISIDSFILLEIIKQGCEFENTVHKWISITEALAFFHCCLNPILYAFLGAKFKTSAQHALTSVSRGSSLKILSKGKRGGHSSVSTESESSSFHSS

Regarding `CC(C)N1CCN(c2cccc3nc(CN(C)[C@H]4CCOc5cccnc54)cn23)CC1` [Example 8, (4S)—N-Methyl-N-({5-[4-(1-methylethyl)-1-piperazinyl]imidazo[1,2-a]pyridin-2-yl}methyl)-3,4-dihydro-2H-pyrano[3,2-b]pyridin-4-amine], the IC50 in series [1] was less than 100 nM.
On to `CN(C)CCN(C)c1cccc2nc(CN(C)C3CCOc4cccnc43)cn12` (stereo not shown) [Example 5], for which the IC50 in series [2] is 69.2 nM; in series [3] it was 61.7 nM; in series [5] it was 61 nM; in series [1] it was less than 100 nM. In addition, the IC50 at 97 h in series [4] is greater than 10000 nM.
Take `CN(Cc1cn2c(F)cccc2n1)C1CCOc2cccnc21` (stereo not shown) [Example 2, N-[(5-Fluoroimidazo[1,2-a]pyridin-2-yl)methyl]-N-methyl-3,4-dihydro-2H-pyrano[3,2-b]pyridin-4-amine]: the IC50 in series [2] is greater than 10000 nM; in series [3] it was greater than 10000 nM; in series [5], greater than 20000 nM. The IC50 at 97 h in series [4] was greater than 10000 nM.
For the molecule `c1cc(CN2CCCNCCNCCCNCC2)ccc1CN1CCCNCCNCCCNCC1` [AMD-3100], the “T-tropic HIV viral load” value in series [6] is “significantly reduce T-tropic HIV viral load”.
Consider `CN1CCN(c2cccc3nc(CN(C)C4CCOc5cccnc54)c(CO)n23)CC1` (stereo not shown) [Example 14, [2-{[3,4-dihydro-2H-pyrano[3,2-b]pyridin-4-yl(methyl)amino]methyl}-5-(4-methyl-1-piperazinyl)imidazo[1,2-a]pyridin-3-yl]methanol], for which the IC50 in series [1] was less than 100 nM.
For `CN(Cc1cn2c(N3CCNCC3)cccc2n1)C1CCOc2cccnc21` (stereo not shown) [Example 4, N-Methyl-N-{[5-(1-piperazinyl)imidazo[1,2-a]pyridin-2-yl]methyl}-3,4-dihydro-2H-pyrano[3,2-b]pyridin-4-amine], the IC50 in series [2] was 25.1 nM; in series [3], 26.9 nM; in series [5], 34 nM; in series [1] it was less than 100 nM. In addition, in series [4], the IC50 at 97 h is greater than 10000 nM.
Turning to `CN1CCC(N(C)c2cccc3nc(CN(C)C4CCOc5cccnc54)cn23)C1` (stereo not shown) [Example 12, N-Methyl-N-({5-[methyl(1-methyl-3-pyrrolidinyl)amino]imidazo[1,2-a]pyridin-2-yl}methyl)-3,4-dihydro-2H-pyrano[3,2-b]pyridin-4-amine], in series [1], the IC50 is less than 100 nM.
On the same count and under the same terms, to `CN(C)C1CCN(c2cccc3nc(CN(C)[C@H]4CCOc5cccnc54)cn23)C1` (stereo partly drawn) [Example 9, (4S)—N-({5-[3-(Dimethylamino)-1-pyrrolidinyl]imidazo[1,2-a]pyridin-2-yl}methyl)-N-methyl-3,4-dihydro-2H-pyrano[3,2-b]pyridin-4-amine] belongs less than 100 nM.
Turning to `CN1CCN(c2cccc3nc(CN(C)C4CCOc5cccnc54)cn23)CC1` (stereo not shown) [Example 3, N-Methyl-N-{[5-(4-methyl-1-piperazinyl)imidazo[1,2-a]pyridin-2-yl]methyl}-3,4-dihydro-2H-pyrano[3,2-b]pyridin-4-amine], the IC50 in series [2] was 6.92 nM; in series [3], 2.63 nM; in series [5] it was 17 nM; in series [1], less than 100 nM. In addition, the IC50 at 97 h in series [4] is greater than 10000 nM.
Turning to `CN1CCN(c2cccc3nc(CN(C)[C@H]4CCOc5cccnc54)cn23)CC1` [Example 13, (4S)—N-Methyl-N-{[5-(4-methyl-1-piperazinyl)imidazo[1,2-a]pyridin-2-yl]methyl}-3,4-dihydro-2H-pyrano[3,2-b]pyridin-4-amine], the IC50 in series [1] was less than 100 nM.
With `CN(Cc1cn2c(N3CCC(N)CC3)cccc2n1)[C@H]1CCOc2cccnc21` [Example 10, (4S)—N-{[5-(4-Amino-1-piperidinyl)imidazo[1,2-a]pyridin-2-yl]methyl}-N-methyl-3,4-dihydro-2H-pyrano[3,2-b]pyridin-4-amine], in series [1], the IC50 is less than 100 nM.
For `CN(Cc1cn2c(N3CCC(N)C3)cccc2n1)[C@H]1CCOc2cccnc21` (stereo partly drawn) [Example 11, (4S)—N-{[5-(3-Amino-1-pyrrolidinyl)imidazo[1,2-a]pyridin-2-yl]methyl}-N-methyl-3,4-dihydro-2H-pyrano[3,2-b]pyridin-4-amine], the IC50 in series [1] is less than 100 nM.
The same measure, in the same setting: to `CN(Cc1cn2c(N3CCNC(=O)C3)cccc2n1)[C@H]1CCOc2cccnc21` [Example 7, 4-(2-{[(4S)-3,4-Dihydro-2H-pyrano[3,2-b]pyridin-4-yl(methyl)amino]methyl}imidazo[1,2-a]pyridin-5-yl)-2-piperazinone] belongs 500 to 10000 nM.

These data come from patent US20080207634A1, “Chemical Compounds” (priority 2004, published 2008).
